# Measured values taken from US7691416B2, “Methods of treating vascular disease” (priority 2002, dated 2010).
# Experiments:
# mouse SMC = experiment: SMC proliferation, [3H]thymidine incorporation; type: cell-based
# Text: (§1) Animals. Male (250-350 g) Brown Norway rats (RT1^n) were used as aortic graft donors and male (250-350 g) Lewis rats (RT11) as recipients. Dawley (400-450 g) rats were used in the balloon injury model. Adult male C57BL/6, C57/S129, p21^−/− and p53^−/− null mice were purchased from Jackson Laboratory (Bar Harbor, Me.). mkk3^(−/−) null mice were generated as described Lu et al. (EMBO. 18:1845-1857 (1999)). The inos^−/− and enos^−/− mice were bred at the University of Pittsburgh. Aortic transplant model. Aortic transplantation was performed as described in Shimizu et al. (Nat. Med. 7:738-741 (2001)). Briefly, 3 to 4 cm of descending aorta was harvested from the donor and implanted between the renal arteries and the aortic bifurcation of the recipient. Both edges of the native abdominal aorta were ligated. Balloon injury model. Balloon angioplasty was carried out as described in Murakami et al. (Atherosclerosis 157:361-368 (2001)). Briefly, a 2 Fr. arterial embolectomy catheter (Baxter, Chicago, Ill.) was inserted into the common carotid artery, and injury was created by inflating the balloon to 5 atmospheres of pressure for 5 minutes. The arteries were flushed and the external carotid artery was ligated, ensuring return of blood flow through the common and internal carotid arteries. Injury of the vessel wall and subsequent pathological analysis was made in a manner that was blinded to the treatment group. CO exposure. CO was delivered to animals as described in Otterbein et al. (Nat. Med. 6:422-428 (2000)). Graft donors and recipients were exposed to CO (250 ppm) for two days before transplantation and for 56 days immediately following transplantation. In the balloon injury model, rats received either no pretreatment or were exposed to CO (250 ppm) for one hour prior to injury. Following surgery rats were housed in room air for two weeks. Cells. Primary mouse and rat smooth muscle cells (SMC) were isolated and cultured as described in Laubach et al. (Proc Natl Acad Sci USA 92:10688-9 (1995)). Mouse SMC isolated from HO-1^−/− mice were obtained as described in Duckers et al. (Nat. Med. 7:693-698 (2001)). Cell treatment and reagents. Guanylate cyclase inhibitor 1H(1,2,4) oxadiazolo(4,3-a)quinoxalin-1 (ODQ; Calbiochem-Novabiochem, San Diego, Calif.; 10-100 μM) and p38 MAPK inhibitor pyridinyl imidazol SB203580 (Calbiochem; 5-20 μM) were dissolved in DMSO. The cGMP analogue 8-bromo-cGMP sodium salt (8-Br-cGMP; Sigma-Aldrich, St. Louis, Mo.; 10-100 μM) and the PKG inhibitor (10-100 μM; Alexis Biochemicals) were dissolved in water. Cell counts and [^3H] thymidine incorporation. Rat and mouse SMC were isolated and cultured as described in Peyton et al. (Blood 99:4443-4448 (2002)). Proliferation assays were carried out as described in Petkova et al. (J Biol. Chem. 276:7932-7936 (2001)). For [^3H] thymidine incorporation studies, cells were serum-starved overnight and then stimulated with 10% serum containing 5 μCi/ml [^3H] thymidine (New England Nuclear, Boston Mass.). [^3H]thymidine incorporation was measured by scintillation spectroscopy and presented as mean counts/min/well. Histomorphometric analysis. Aortic grafts and carotid arteries were harvested at 56 and 14 days respectively. Vessels were fixed, embedded, and serially sectioned (5μ) in toto. Every third slide was stained with Hematoxylin and Eosin (H&E) for histomorphometric analyses. In both models, one or two images per slide at a resolution of 1520×1080 pixels were captured at a magnification of 25× with a Zeiss microscope (Axioskop, Iowa City, Iowa), RT color SPOT (Diagnostic Instrument, Inc., Saint Joseph, Mich.) and Windows NT (Compaq Computer) using Adobe Photoshop version 5.5 software. Areas from eight to ten captured images were calculated using digital imaging software as number of pixels corresponding to those areas. Twenty-four to forty-eight sections from each group were statistically analyzed with SPSS software version 10. Immunostaining and cell population histomorphometric analysis. […]
# p21Cip1 = experiment: Western blot of p21Cip1 expression; type: cell-based, mouse
# Text: as §1
# p38 MAPK = experiment: Western blot of phosphorylated p38 MAPK in SMC; type: cell-based, mouse
# Text: as §1, with “The cGMP analogue 8-bromo-cGMP sodium salt (8-Br-cGMP; Sigma-Aldrich, St. Louis, Mo.; 10-100 μM) and the PKG inhibitor (10-100 μM; Alexis Biochemicals) were dissolved in water. Cell counts and [^3H] thymidine incorporation. Rat and mouse SMC were isolated and cultured as described in Peyton et al. (Blood 99:4443-4448 (2002)). Proliferation assays were carried out as described in Petkova et al. (J Biol. Chem. 276:7932-7936 (2001)). For [^3H] thymidine incorporation studies, cells were serum-starved overnight and then stimulated with 10% serum containing 5 μCi/ml [^3H] thymidine (New England Nuclear, Boston Mass.).” left out, “Histomorphometric analysis. Aortic grafts and carotid arteries were harvested at 56 and 14 days respectively. Vessels were fixed, embedded, and serially sectioned (5μ) in toto. Every third slide was stained with Hematoxylin and Eosin (H&E) for histomorphometric analyses. In both models, one or two images per slide at a resolution of 1520×1080 pixels were captured at a magnification of 25× with a Zeiss microscope (Axioskop, Iowa City, Iowa), RT color SPOT (Diagnostic Instrument, Inc., Saint Joseph, Mich.) and Windows NT (Compaq Computer) using Adobe Photoshop version 5.5 software.” left out, “10.” for “10. Immunostaining and cell population histomorphometric analysis.”
# [1] = Nitric oxide exposure of rats before balloon angioplasty; type: in vivo, rat; conditions: NO administered at 500 ppm, 1 hour
# Text: (§2) Animals. Male (250-350 g) Brown Norway rats (RT1^n) were used as aortic graft donors and male (250-350 g) Lewis rats (RT11) as recipients. Dawley (400-450 g) rats were used in the balloon injury model. Adult male C57BL/6, C57/S129, p21^−/− and p53^−/− null mice were purchased from Jackson Laboratory (Bar Harbor, Me.). mkk3^(−/−) null mice were generated as described Lu et al. (EMBO. 18:1845-1857 (1999)). The inos^−/− and enos^−/− mice were bred at the University of Pittsburgh. Aortic transplant model. Aortic transplantation was performed as described in Shimizu et al. (Nat. Med. 7:738-741 (2001)). Briefly, 3 to 4 cm of descending aorta was harvested from the donor and implanted between the renal arteries and the aortic bifurcation of the recipient. Both edges of the native abdominal aorta were ligated. Balloon injury model. Balloon angioplasty was carried out as described in Murakami et al. (Atherosclerosis 157:361-368 (2001)). […] [^3H]thymidine incorporation was measured by scintillation spectroscopy and presented as mean counts/min/well. […] Areas from eight to ten captured images were calculated using digital imaging software as number of pixels corresponding to those areas. Twenty-four to forty-eight sections from each group were statistically analyzed with SPSS software version 10. […]
# [2] = tested on: intimal hyperplasia after balloon injury of the carotid artery; experiment: Balloon injury model of the carotid artery; type: in vivo, rat; conditions: NO 250 ppm; one hour pre-treatment
# Text: as §2
smiles,measurement,setting,value
"Nc1nc2c(nc(Br)n2[C@@H]2O[C@@H]3COP(=O)([O-])O[C@H]3[C@H]2O)c(=O)[nH]1.[Na+] [8-Br-cGMP, 8-Bromoguanosine 3′-5′-cyclic monophosphate sodium salt, reference compound]",Suppression of proliferation by the cGMP analogue,mouse SMC; SMC derived from p21-/- mice,impaired
same,SMC proliferation,mouse SMC; wild type SMC exposed to the cGMP analogue,suppressed
same,p21Cip1 expression,"p21Cip1; SMC exposed to the cGMP analogue, comparably to CO",increased
same,p38 MAPK activation,p38 MAPK; SMC exposed to the cGMP analogue,activated
"C[S+]([O-])c1ccc(-c2nc(-c3ccncc3)c(-c3ccc(F)cc3)[nH]2)cc1 (centres unmarked) [SB203580, reference compound]",Anti-proliferative effect of 8Br-cGMP in presence of p38 MAPK inhibitor,mouse SMC; 8Br-cGMP plus SB203580,abrogated
same,Anti-proliferative effect of CO in presence of p38 MAPK inhibitor,mouse SMC; CO 250 ppm plus SB203580,suppressed
same,Effects of CO on proliferation in presence of p38 MAPK inhibitor,"mouse SMC; SMC from p21-/- mice, CO 250 ppm plus SB203580",did not modulate
same,Ability of 8Br-cGMP to up-regulate expression of p21Cip1 in presence of p38 MAPK inhibitor,p21Cip1; 8Br-cGMP plus SB203580,suppressed
same,Ability of CO to up-regulate expression of p21Cip1 in presence of p38 MAPK inhibitor,p21Cip1; CO 250 ppm plus SB203580,blocked
"O=c1onc2cnc3ccccc3n12 [ODQ, 1H(1,2,4) oxadiazolo(4,3-a)quinoxalin-1, reference compound]",Ability of CO to suppress SMC proliferation under guanylate cyclase inhibition,mouse SMC; CO 250 ppm plus ODQ,impaired
same,Ability of CO to up-regulate p21Cip1 expression under guanylate cyclase inhibition,p21Cip1; CO plus ODQ,impaired
same,Activation of p38 MAPK by CO when cGMP generation is blocked,p38 MAPK; CO plus ODQ,abolished
"[N]=O [NO, Nitric Oxide, reference compound]",Lethality,[1],lethal
same,Intimal thickening triggered by balloon injury,[2],did not modulate
